Source: publication PMC7615677 (Science translational medicine, 2023)
Where two headings read alike, the source gives them in different places.

Key:
[1] = In vitro metabolism, liver microsomes; format: in vitro ADME, human
Experimental: Compounds were spiked into microsomal matrix prepared in 0.1 M pH 7.4 phosphate buffer containing magnesium chloride (final concentration of 3.3 mM), equilibrated for 5-10 min at 37°C. The reaction was initiated with the addition of freshly prepared solution of NADPH (final 1.3 mM). Control samples without co-factor were included for comparison. Aliquots of the reaction mixtures were taken periodically over 60 min and quenched with acetonitrile containing internal standards (metolazone and diazepam). Quenched samples were maintained on ice for approximately 20-30 min, centrifuged (for 5 min) and the supernatant was analyzed by LC-MS.
In vitro intrinsic clearance (CLint, μL/min/mg or μL/min/10^6 cells) values were calculated from the apparent first order degradation rate constant divided by the microsome concentration or the hepatocyte cell number (10^6 viable cells/mL). In vitro CLint values were then divided by the fraction unbound in the in vitro test system (to give CLint,u) and scaled to in vivo values (mL/min/kg) using published physiological scaling factors ([28]). Blood clearance in each species was then calculated using the well-stirred model of hepatic extraction (equation 2) where Q is the hepatic blood flow and fu,blood is calculated from fu,plasma/B:P: [2] PredictedCLblood=Q x fu,blood x CLint,u/Q+fu,blood x CLint,u
Blood clearance values were converted to plasma clearance by multiplying by the B:P.

[2] = In vitro cytotoxicity assay; format: cell-based; conditions: human, HFF human foreskin fibroblasts
[3] = Human PK and dose prediction (IVIVE, allometry, GastroPlus PBPK); conditions: plasma; for AUC: read-out: target cumulative total human plasma AUC
Description: Human plasma clearance was estimated by in vitro/in vivo extrapolation (IVIVE) of data from liver microsomes and allometry using the available in vivo preclinical data. In both cases, renal excretion of unchanged drug was assumed to be negligible (experimentally confirmed in the rat). […] Therefore, the “rule of exponents” was applied and the unbound clearance data were corrected for brain weight ([13]) as described previously ([14]).
The predicted clearance was input along with the data in Table S16 into a physiologically-based pharmacokinetic (PBPK) model (GastroPlus) to simulate human profiles under different dosing conditions. Given that there was no evidence of renal elimination in rats, it was assumed that clearance occurs solely by hepatic metabolism.
Human clearance was estimated using in vitro/in vivo extrapolation (IVIVE) of data obtained in liver microsomes and cryopreserved hepatocytes incorporating binding to microsomes and hepatocytes, plasma protein binding and the blood to plasma ratio. Scaling factors were as described previously ([12]) and liver blood flows were from Simcyp, assuming an average human body weight of 50 kg was assumed for the patient population ([12]).
The human dose predictions were based on PK and PD data in hamsters (best case scenario) and mice (worst case scenario) and unbound plasma concentrations that led to 95% efficacy. Human profiles were simulated at different doses and dosing regimens (qd or bid) over 10-14 days using GastroPlus (version 9.8, Simulations Plus, Inc., Lancaster, CA). The PBPK model used fasted physiological conditions and a 50 kg 30-year-old American male. The Berezhkovskiy perfusion limited model was used for Kp estimation ([30]). The estimated human plasma clearance was input directly into the model with the assumption that elimination occurred only by hepatic metabolism (consistent with data in rats).

L. infantum = assay: Leishmania intramacrophage in vitro assay; format: cell-based
Experimental: (§1) A drug incubation period of 96 h was applied, and cells were stained with Giemsa for microscopic evaluation of cellular amastigote burdens. Percentage reduction compared to the burden in the infected non-treated control wells was used as a measure for drug activity.

L. guyanensis = assay: Leishmania intramacrophage in vitro assay; format: cell-based; conditions: L. guyanensis MHOM/PE/02/PER 054/0
Experimental: as §1

L. tropica = assay: Leishmania intramacrophage in vitro assay; format: cell-based; conditions: L. tropica MHOM/AF/2015/HTD7
Experimental: as §1

L. major = assay: Leishmania intramacrophage in vitro assay; format: cell-based
Experimental: as §1

L. panamensis = assay: Leishmania intramacrophage in vitro assay; format: cell-based; conditions: L. panamensis MHOM/PA/71/LS94
Experimental: as §1

[4] = In vitro cytotoxicity assay; format: cell-based; conditions: human, HepG2 human hepatocellular carcinoma cells
In vivo pharmacokinetics = assay: In vivo pharmacokinetics; design: species or system male beagle dogs
Experimental: Additional PK studies were also conducted by WuXi AppTec Co, Ltd (Shanghai, China) according to protocols reviewed and approved by DNDi. […] IV and oral formulations for rats, mice and hamsters were the same as described above. For dogs, the IV dose was administered in saline containing 2% DMSO and 3% Solutol HS-15 and the oral formulation was as described above. Blood was sampled up to 48 h post-dose into vials containing potassium EDTA as an anticoagulant, proteins were precipitated with acetonitrile and plasma was separated and assayed by LC-MS.
Single dose pharmacokinetic parameters (clearance, volume of distribution and half-life) were initially estimated using non-compartmental methods and oral bioavailability was calculated using the ratio of the dose corrected AUC after oral dosing relative to that after IV administration. Nominal doses were used in the calculations unless the measured dose differed by more than 15% from the nominal dose, in which case the measured dose was used. Where a full concentration versus time profile was obtained from a single animal, parameters were estimated for each animal and mean and standard deviations calculated. In the case of mice where sparse sampling was used with multiple animals per time point, the data analysis was conducted using the mean profile.

[5] = L. infantum MHOM/BR/2007/WC (L3015)
[6] = L. infantum MHOM/ES/2016/LLM-2346
[7] = L. infantum MHOM/FR/96/LEM3323 Cl4 MIL-R (miltefosine resistant)
[8] = L. infantum MHOM/FR/96/LEM3323 Cl4 PM-R (paromomycin resistant)
[9] = L. infantum MHOM/MA/67/ITMAP263
[10] = dogs, single oral 90 mg/kg, two individual dogs, 90 mg/kg
[11] = male, beagle, dog, plasma, dogs, single oral 30 mg/kg
[12] = male, beagle, dog, plasma, dogs, single oral 90 mg/kg
[13] = male, beagle, plasma, Dog, oral 5.0 mg/kg

## Cc1[nH]c2nc(N)nc(C)c2c1-c1ccc(C#N)c2c1OCO2 [DNDI-6174]
[1]; Human
  Microsome predicted in vivo CLplasma: 0.86 mL/min/kg
[1]; Human, 2 independent experiments, ± standard error of estimate
  In vitro Microsome CLint: 7.2 ± 1.2 µL/min/mg
[1]; human, liver microsomes, pH 7.4, Human, 2 independent experiments, ± standard error of estimate, read-out: In vitro Microsome CLint
  microsomal CLint at 0.5 µM: 6.4 ± 0.75 µL/min/mg
[2]
  CC50: > 64000 nM
[3]; male, oral, 27 ug
  AUC: 460 µg·h/mL
[3]; 4 ug
  AUC: 60 µg·h/mL
[3]; from in vitro predictions, read-out: expected plasma clearance in humans
  clearance: ~1 mL/min/kg
L. infantum; [5]
  EC50: 70 nM
  EC90: 180 nM
L. infantum; [6]
  EC50: 210 nM
  EC90: 1520 nM
L. infantum; L. infantum MHOM/FR/96/LEM3323
  EC50: 50 nM
  EC90: 180 nM
L. infantum; [7]
  EC50: 70 nM
  EC90: 220 nM
L. infantum; [8]
  EC50: 80 nM
  EC90: 170 nM
L. infantum; [9]
  EC50: 160 nM
  EC90: 440 nM
L. guyanensis
  EC50: 12 nM
  EC90: 39 nM
L. tropica
  EC50: 360 nM
  EC90: 2180 nM
L. major; L. major MHOM/IL/81/Friedlin
  EC50: 90 nM
  EC90: 900 nM
L. major; L. major MHOM/SA/85/JISH118
  EC50: 740 nM
  EC90: 11400 nM
L. panamensis
  EC50: 40 nM
  EC90: 85 nM
[4]
  CC50: > 64000 nM
In vivo pharmacokinetics; [10]
  AUC0-∞: 533 µg·h/mL
  T1/2: 20.9 h
In vivo pharmacokinetics; male, beagle, dog, plasma, iv, 1 mg/kg, Dog, intravenous 1.0 mg/kg, read-out: Apparent t1/2 (converted)
  half-life: 9.84 h
In vivo pharmacokinetics; male, beagle, dog, plasma, iv, 1 mg/kg, Dog, intravenous 1.0 mg/kg, read-out: Plasma AUC0-inf
  AUC(0-inf): 5 µg·h/mL
In vivo pharmacokinetics; male, beagle, dog, plasma, iv, 1 mg/kg, Dog, intravenous 1.0 mg/kg, read-out: Plasma CL
  clearance: 3.5 mL/min/kg
In vivo pharmacokinetics; male, beagle, dog, plasma, iv, 1 mg/kg, Dog, read-out: Measured in vivo CLplasma
  clearance: 3.4 mL/min/kg
In vivo pharmacokinetics; male, beagle, dog, plasma, po, 5 mg/kg, Dog, oral 5.0 mg/kg, read-out: Apparent t1/2 (converted)
  half-life: 6.9 h
In vivo pharmacokinetics; male, beagle, dog, plasma, po, 5 mg/kg, Dog, oral 5.0 mg/kg, read-out: Plasma AUC0-∞
  AUC(0-inf): 18.5 µg·h/mL
In vivo pharmacokinetics; male, beagle, dog, plasma, po, 30 mg/kg, dogs, single oral 30 mg/kg, read-out: AUC0-∞
  AUC(0-inf): 255 µg·h/mL
In vivo pharmacokinetics; male, beagle, dog, plasma, po, 30 mg/kg, dogs, single oral 30 mg/kg, read-out: T1/2 (converted)
  half-life: 14.4 h
In vivo pharmacokinetics; male, beagle, dog, plasma, po, 90 mg/kg, dogs, single oral 90 mg/kg, two individual dogs, read-out: AUC0-∞
  AUC(0-inf): 613 µg·h/mL
In vivo pharmacokinetics; male, beagle, dog, plasma, po, 90 mg/kg, dogs, single oral 90 mg/kg, two individual dogs, read-out: T1/2 (converted)
  half-life: 14.2 h
In vivo pharmacokinetics; [11]
  Cmax: 9590 ng/mL
  Tmax: 3.33 h
In vivo pharmacokinetics; [12]
  Cmax: 19100 ng/mL
  Tmax: 10.7 h
In vivo pharmacokinetics; male, beagle, plasma, Dog, intravenous 1.0 mg/kg, read-out: Plasma Vss
  Vd: 2.5 L/kg
In vivo pharmacokinetics; [13]
  Cmax: 2020 ng/mL
  Tmax: 4 h
  bioavailability: 90%
